From patent US4550186A, “Binuclear copper (II) carboxylates formed from amine-carboxyboranes” (Duke University, priority 1983, dated 1985)

Molecular target: T1, transfer ribonucleic acid polymerase (Mus musculus, UniProt B2RXC6+P59470)
T1 sequence (B2RXC6 1-1390): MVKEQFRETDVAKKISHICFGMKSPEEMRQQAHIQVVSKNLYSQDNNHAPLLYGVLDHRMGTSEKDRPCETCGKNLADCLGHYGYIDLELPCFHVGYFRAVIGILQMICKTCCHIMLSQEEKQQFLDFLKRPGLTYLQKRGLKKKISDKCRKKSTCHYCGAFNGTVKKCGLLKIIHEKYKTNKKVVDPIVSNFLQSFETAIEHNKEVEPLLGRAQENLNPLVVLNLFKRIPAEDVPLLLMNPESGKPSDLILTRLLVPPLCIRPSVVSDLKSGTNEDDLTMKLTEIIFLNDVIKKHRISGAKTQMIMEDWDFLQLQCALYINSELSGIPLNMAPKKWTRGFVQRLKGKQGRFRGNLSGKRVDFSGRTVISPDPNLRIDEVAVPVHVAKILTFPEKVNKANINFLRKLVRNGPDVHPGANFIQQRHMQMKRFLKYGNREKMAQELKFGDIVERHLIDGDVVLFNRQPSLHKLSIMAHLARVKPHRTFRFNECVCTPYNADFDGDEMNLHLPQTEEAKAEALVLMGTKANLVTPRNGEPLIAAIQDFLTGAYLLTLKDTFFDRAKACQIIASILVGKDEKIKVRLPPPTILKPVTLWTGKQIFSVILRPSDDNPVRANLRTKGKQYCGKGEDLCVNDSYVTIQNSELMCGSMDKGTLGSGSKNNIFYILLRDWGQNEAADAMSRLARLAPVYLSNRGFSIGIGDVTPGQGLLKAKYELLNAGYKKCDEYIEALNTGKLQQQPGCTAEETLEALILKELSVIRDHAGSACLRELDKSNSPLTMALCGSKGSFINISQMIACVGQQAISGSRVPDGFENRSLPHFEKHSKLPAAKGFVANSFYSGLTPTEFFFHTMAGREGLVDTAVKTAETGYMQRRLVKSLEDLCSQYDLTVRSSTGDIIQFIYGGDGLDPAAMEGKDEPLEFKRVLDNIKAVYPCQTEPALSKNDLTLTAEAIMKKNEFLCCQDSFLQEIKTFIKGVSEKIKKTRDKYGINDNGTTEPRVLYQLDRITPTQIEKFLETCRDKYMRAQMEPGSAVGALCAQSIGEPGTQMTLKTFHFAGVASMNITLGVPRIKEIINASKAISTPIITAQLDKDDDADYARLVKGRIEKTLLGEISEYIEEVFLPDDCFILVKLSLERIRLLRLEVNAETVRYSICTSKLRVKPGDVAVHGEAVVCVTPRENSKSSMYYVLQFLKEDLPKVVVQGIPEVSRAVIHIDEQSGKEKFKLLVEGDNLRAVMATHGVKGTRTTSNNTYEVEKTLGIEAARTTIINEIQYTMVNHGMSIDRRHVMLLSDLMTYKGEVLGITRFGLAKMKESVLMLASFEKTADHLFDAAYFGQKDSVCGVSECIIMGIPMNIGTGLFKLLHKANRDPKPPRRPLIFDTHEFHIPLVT
T1 sequence (P59470 1-1133): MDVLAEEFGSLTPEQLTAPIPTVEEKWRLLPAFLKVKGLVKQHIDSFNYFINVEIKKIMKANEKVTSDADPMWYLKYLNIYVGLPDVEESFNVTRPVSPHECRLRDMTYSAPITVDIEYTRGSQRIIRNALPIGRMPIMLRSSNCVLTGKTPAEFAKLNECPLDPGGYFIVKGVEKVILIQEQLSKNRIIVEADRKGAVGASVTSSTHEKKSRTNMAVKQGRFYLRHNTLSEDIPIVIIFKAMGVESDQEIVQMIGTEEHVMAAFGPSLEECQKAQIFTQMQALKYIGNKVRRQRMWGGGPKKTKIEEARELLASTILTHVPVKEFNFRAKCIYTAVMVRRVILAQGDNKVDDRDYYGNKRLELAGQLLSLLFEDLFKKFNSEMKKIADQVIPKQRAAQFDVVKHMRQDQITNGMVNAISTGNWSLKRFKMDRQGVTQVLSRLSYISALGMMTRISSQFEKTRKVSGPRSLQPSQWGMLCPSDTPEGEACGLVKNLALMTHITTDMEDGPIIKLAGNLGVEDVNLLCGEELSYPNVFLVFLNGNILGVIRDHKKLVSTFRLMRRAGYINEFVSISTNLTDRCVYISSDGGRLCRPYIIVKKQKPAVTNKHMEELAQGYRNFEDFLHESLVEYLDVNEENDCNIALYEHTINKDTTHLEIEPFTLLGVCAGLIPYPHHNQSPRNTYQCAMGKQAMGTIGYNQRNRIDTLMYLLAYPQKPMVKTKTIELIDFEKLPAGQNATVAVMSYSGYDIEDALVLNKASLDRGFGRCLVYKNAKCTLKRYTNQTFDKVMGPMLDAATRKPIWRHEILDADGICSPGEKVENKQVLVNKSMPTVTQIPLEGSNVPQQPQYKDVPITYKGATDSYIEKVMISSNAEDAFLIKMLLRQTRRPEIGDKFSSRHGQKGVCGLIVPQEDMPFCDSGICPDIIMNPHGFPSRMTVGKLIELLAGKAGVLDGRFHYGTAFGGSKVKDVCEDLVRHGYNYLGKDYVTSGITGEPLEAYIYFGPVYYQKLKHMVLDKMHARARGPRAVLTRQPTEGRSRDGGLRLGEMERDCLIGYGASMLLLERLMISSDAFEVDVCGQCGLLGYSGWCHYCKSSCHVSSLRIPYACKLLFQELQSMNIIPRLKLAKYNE
Assay: In vivo transfer ribonucleic acid polymerase activity
Procedure: CF1 male mice (~30 g) were implanted with 2×10^6 Ehrlich ascites tumor cells, intraperitoneally on Day 0. Compound I was suspended by homogenation in 0.05% polysorbate.80-water and administered intraperitoneally at 10 and 20 mg/kg for 9 days to determine its effectiveness for inhibition of tumor growth. Mice were sacrificed on Day 10, and the ascites fluid was collected from the peritoneal cavity. The volume and ascrit (packed cell volume) were determined for each animal and the percent inhibition of tumor growth was calculated. For the metabolic studies, mice were treated on Days 8 and 9 with 10 mg/kg of Compound I, intraperitoneally. The animal was sacrificed on Day 10 and the ascites fluid harvested. The in vitro metabolic studies were performed at […] final concentration of Compound I.
In vitro and in vivo nuclear deoxyribonucleic acid polymerase activity was determined on isolated Ehrlich ascites cell nuclei. The incubation was that described by Sawada et al [Can. Res., 34, 3341 (1974)] except that [methyl-^3 H] deoxythymidine triphosphate (82.4 Ci/mmol) was used. The acid insoluble nucleic acid was collected on GF/F filters and counted. Nuclear ribonucleic acid polymerase activities were determined on enzymes isolated from nuclei. […] The acid insoluble ribonucleic acid was collected on nitrocellulose filters and counted.

## {Cu[(CH3)3 N.BH2 CO2 ]2.(CH3)3 N.BH2 COOH} [Compound I]
  transfer ribonucleic acid polymerase activity suppressed: 37%
10 mg/kg/day I.P. on Days 8 and 9
  Transfer ribonucleic acid polymerase activity: 63 ± 7 % Control
